Test [1] addresses human recombinant FAAH (Homo sapiens (Human), UniProt O00519). The experiment in a line: In vitro inhibition of FAAH activity (fluorescent inhibitor screening kit, AMC arachidonoyl amide). To be noted: human recombinant FAAH; read-out: Inhibition on FAAH activity (IC50). Format: biochemical. The source says: The inhibitory effect of compounds of Formula (I-IV) on the activity of human recombinant FAAH was studied using a commercial inhibitor screening kit (Cayman Chemicals, Godlewski et al., 2010 [19]). In brief, FAAH hydrolyzes AMC arachidonoyl amide resulting in the release of the fluorescent product, while the inhibitor will inhibit the FAAH activity and thus reduce the fluorescent signal. The resulting fluorophore can be analyzed using an excitation wavelength of 340-360 nm and an emission wavelength of 450-465 nm by a plate reader (Synergy H1, Biotek). Inhibition is calculated as a percentage of the treated sample over the non-treated control based on the signal values, and where possible, a range of concentrations of compounds was tested to find the IC50 values (i.e. the concentration of compound that inhibited 50% FAAH activity).

Test [2] deals with human recombinant MAGL (Homo sapiens (Human), UniProt Q99685). The experiment in a line: In vitro inhibition of MAGL activity (inhibitor screening kit, 4-nitrophenylacetate). To be noted: human recombinant MAGL. Format: biochemical. Here is the method:
The inhibitory effect of the compounds on activity of human recombinant MAGL was also studied using a commercial inhibitor screening kit (Cayman Chemicals). In brief, MAGL hydrolyzes 4-nitrophenylacetate resulting in a yellow product, 4-nitrophenol with an absorbance at 405-412 nm, while the inhibitor will inhibit the MAGL activity and thus reduce the yellow signal. The absorbance of the yellow product can be analyzed using the plate reader. Inhibition is calculated as a percentage of the treated sample over the non-treated MAGL control based on the signal values.

Usually IC50 stands for the concentration that gives 50% inhibition.

human recombinant FAAH, sequence (O00519 whole entry): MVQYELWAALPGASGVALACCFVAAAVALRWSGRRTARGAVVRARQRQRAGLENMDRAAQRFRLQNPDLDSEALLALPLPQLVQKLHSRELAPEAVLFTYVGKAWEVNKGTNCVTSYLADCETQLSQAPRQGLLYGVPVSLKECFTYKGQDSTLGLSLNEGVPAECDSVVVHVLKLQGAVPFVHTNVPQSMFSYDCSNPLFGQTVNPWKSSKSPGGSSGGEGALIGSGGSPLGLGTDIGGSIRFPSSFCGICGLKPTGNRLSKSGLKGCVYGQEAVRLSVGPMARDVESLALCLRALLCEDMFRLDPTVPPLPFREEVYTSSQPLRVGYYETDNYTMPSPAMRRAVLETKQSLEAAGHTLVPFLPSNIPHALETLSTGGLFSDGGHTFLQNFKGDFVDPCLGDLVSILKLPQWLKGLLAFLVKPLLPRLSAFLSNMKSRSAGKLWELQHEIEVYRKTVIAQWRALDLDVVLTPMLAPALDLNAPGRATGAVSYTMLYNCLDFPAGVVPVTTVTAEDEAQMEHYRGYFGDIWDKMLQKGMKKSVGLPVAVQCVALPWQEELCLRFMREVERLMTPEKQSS
human recombinant MAGL, sequence (Q99685 whole entry): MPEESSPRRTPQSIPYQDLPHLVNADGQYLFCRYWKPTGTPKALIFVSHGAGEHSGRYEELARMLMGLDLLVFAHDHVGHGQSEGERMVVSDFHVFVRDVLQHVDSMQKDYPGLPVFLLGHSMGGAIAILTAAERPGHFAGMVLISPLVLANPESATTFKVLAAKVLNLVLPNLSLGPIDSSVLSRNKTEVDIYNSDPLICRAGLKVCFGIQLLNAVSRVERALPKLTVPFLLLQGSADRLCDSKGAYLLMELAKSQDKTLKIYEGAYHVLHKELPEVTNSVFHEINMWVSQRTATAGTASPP

As to `O=C(NC1CCCC1)Oc1cccc(-c2cncc(C(F)(F)F)c2)c1` [Example 32, 3-(5-(trifluoromethyl)pyridin-3-yl)phenyl cyclopentylcarbamate], the IC50 was 10 to 100 nM in test [1] and > 10000 nM in test [2].
Take `O=C(NCC1CCCCC1)Oc1cccc(-c2cncc(-c3cccs3)c2)c1` [Example 60, 3-(5-(thiophen-2-yl)pyridin-3-yl)phenyl (cyclohexylmethyl)carbamate]: the IC50 was 10 to 100 nM in test [1] and > 10000 nM in test [2].
Turning to `CCOC(=O)c1cncc(-c2cccc(OC(=O)Nc3ccc(F)cc3)c2)c1` [Example 7, ethyl 5-(3-(((4-fluorophenyl)carbamoyl)oxy)phenyl)nicotinate], the values for the IC50 in test [1] and in test [2] were > 1000 nM and > 10000 nM, respectively.
Consider `O=Cc1cncc(-c2cccc(OC(=O)NCC3CCCCC3)c2)c1` [Example 17, 3-(5-formylpyridin-3-yl)phenyl (cyclohexylmethyl)carbamate], for which the values for the IC50 in test [1] and in test [2] were 10 to 100 nM and > 10000 nM, respectively.
For the compound `O=C(NC1CCCCCC1)Oc1ccc(OC(F)(F)F)c(-c2cncc(-c3nnco3)c2)c1` [Example 202, 3-(5-(1,3,4-oxadiazol-2-yl)pyridin-3-yl)-4-(trifluoromethoxy)phenyl cycloheptylcarbamate], the IC50 in test [1] is 100 to 1000 nM; in test [2], > 10000 nM.
As for `CCCCCCCCNC(=O)Oc1cccc(-c2cncc(-c3cccs3)c2)c1` [Example 59, 3-(5-(thiophen-2-yl)pyridin-3-yl)phenyl octylcarbamate], the results for the IC50 in test [1] and in test [2] were 10 to 100 nM and > 10000 nM, respectively.
In the case of `Cc1ccc(-c2cncc(-c3ncco3)c2)cc1OC(=O)NC1CCCCCC1` [Example 97, 2-methyl-5-(5-(oxazol-2-yl)pyridin-3-yl)phenyl cycloheptylcarbamate], the IC50 in test [1] and in test [2] was > 1000 nM throughout.
As for `CN(C(=O)Oc1cccc(-c2cncc(-c3nnco3)c2)c1)C1CCCCC1` [Example 142, 3-(5-(1,3,4-oxadiazol-2-yl)pyridin-3-yl)phenyl cyclohexyl(methyl)carbamate], the IC50 in test [1] is 1000 to 10000 nM; in test [2] it was > 10000 nM.
Take `COc1ccc(OC(=O)NC2CCCCC2)cc1-c1cncc(-c2ncco2)c1` [Example 81, 4-methoxy-3-(5-(oxazol-2-yl)pyridin-3-yl)phenyl cyclohexylcarbamate]: the results for the IC50 in test [1] and in test [2] were 10 to 100 nM and > 10000 nM, respectively.
In the case of `O=C(NC1CCCCCC1)Oc1cccc(-c2cncc(-c3nnn[nH]3)c2)c1` [Example 243, 3-(5-(1H-tetrazol-5-yl)pyridin-3-yl)phenyl cycloheptylcarbamate], the IC50 is > 1000 nM in test [1] and > 10000 nM in test [2].
For `COc1ccc(OC(=O)NC2CCCC2)cc1-c1cncc(-c2nncs2)c1` [Example 216, 3-(5-(1,3,4-thiadiazol-2-yl)pyridin-3-yl)-4-methoxyphenyl cyclopentylcarbamate], the figures for the IC50 in test [1] and in test [2] were 100 to 1000 nM and > 10000 nM, respectively.
In the case of `O=C(NC1CCCCCC1)Oc1cccc(-c2cncc(-c3nnco3)c2)c1` [Example 137, 3-(5-(1,3,4-oxadiazol-2-yl)pyridin-3-yl)phenyl cycloheptylcarbamate], the IC50 in test [1] is 10 to 20 nM; in test [2], > 10000 nM.
With `O=C(NC1CCCCC1)Oc1ccc(OC(F)(F)F)c(-c2cncc(-c3nnco3)c2)c1` [Example 200, 3-(5-(1,3,4-oxadiazol-2-yl)pyridin-3-yl)-4-(trifluoromethoxy)phenyl cyclohexylcarbamate], the IC50 in test [1] was 100 to 1000 nM; in test [2], > 10000 nM.
Take `O=C(NCC1CCCCC1)Oc1cccc(-c2cncc(-c3nnn[nH]3)c2)c1` [Example 239, 3-(5-(1H-tetrazol-5-yl)pyridin-3-yl)phenyl (cyclohexylmethyl)carbamate]: the IC50 was > 1000 nM in test [1] and > 10000 nM in test [2].
For `COc1cc(OC(=O)NC2CCCC2)cc(-c2cncc(-c3nnco3)c2)c1` [Example 177, 3-(5-(1,3,4-oxadiazol-2-yl)pyridin-3-yl)-5-methoxyphenyl cyclopentylcarbamate] the same measures were 100 to 1000 nM and > 10000 nM.
In the case of `O=C(NCC1CCCCC1)Oc1cccc(-c2cncc(-c3nnco3)n2)c1` [Example 264, 3-(6-(1,3,4-oxadiazol-2-yl)pyrazin-2-yl)phenyl (cyclohexylmethyl)carbamate], the IC50 in test [1] is 10 to 100 nM; in test [2], ~10000 nM.
For “3-(5-(1,3,4-oxadiazol-2-yl pyridin-3-yl)phenyl pentylcarbamate [Example 127]” the same measures were 10 to 100 nM and > 50000 nM.
On to `O=C(NC1CCCC1)Oc1cccc(-c2cc(-c3nnco3)ccn2)c1` [Example 259, 3-(4-(1,3,4-oxadiazol-2-yl)pyridin-2-yl)phenyl cyclopentylcarbamate], for which the IC50 is 100 to 1000 nM in test [1] and > 10000 nM in test [2].
As for `CCCCCNC(=O)Oc1cccc(-c2cncc(C=O)c2)c1` [Example 14, 3-(5-formylpyridin-3-yl)phenyl pentylcarbamate], the IC50 in test [1] was 10 to 100 nM; in test [2], 10000 to 50000 nM.
`CC1CCC(NC(=O)Oc2ccc(OC(F)(F)F)c(-c3cncc(-c4ncco4)c3)c2)CC1` (centres unmarked) [Example 90, 3-(5-(oxazol-2-yl)pyridin-3-yl)-4-(trifluoromethoxy)phenyl (4-methylcyclohexyl)carbamate]: the results for the IC50 in test [1] and in test [2] were 100 to 1000 nM and > 1000 nM, respectively.
With `O=C(NC1CCCC1)Oc1ccc(O)c(-c2cncc(-c3ncn[nH]3)c2)c1` [Example 229, 3-(5-(1H-1,2,4-triazol-5-yl)pyridin-3-yl)-4-hydroxyphenyl cyclopentylcarbamate], the figures for the IC50 in test [1] and in test [2] were 10 to 100 nM and > 10000 nM, respectively.
On to `O=C(Oc1cccc(-c2cncc(-c3nnco3)c2)c1)N1CCOCC1` [Example 151, 3-(5-(1,3,4-oxadiazol-2-yl)pyridin-3-yl)phenyl morpholine-4-carboxylate], for which the IC50 was 1000 to 10000 nM in test [1] and > 10000 nM in test [2].
On the same counts, the results for `CCCCCCCCNC(=O)Oc1cc(-c2cncc(-c3ncco3)c2)ccc1C` [Example 92, 2-methyl-5-(5-(oxazol-2-yl)pyridin-3-yl)phenyl octylcarbamate] are 100 to 1000 nM and > 10000 nM.
Turning to `CN(C)c1ccc(OC(=O)NCC2CCCCC2)cc1-c1cncc(-c2nnco2)c1` [Example 181, 3-(5-(1,3,4-oxadiazol-2-yl)pyridin-3-yl)-4-(dimethylamino)phenyl (cyclohexylmethyl)carbamate], the values for the IC50 in test [1] and in test [2] were ~1000 nM and > 10000 nM, respectively.
With `CCCCCCCCNC(=O)Oc1cccc(-c2cncc(C=O)c2)c1` [Example 16, 3-(5-formylpyridin-3-yl)phenyl octylcarbamate], the IC50 in test [1] lay in the range of 10 to 100 nM; in test [2], 1000 to 10000 nM.
As to `COC(=O)c1cncc(-c2cccc(OC(=O)NC3CCCC3)c2)c1` [Example 11, methyl 5-(3-((cyclopentylcarbamoyl)oxy)phenyl)nicotinate], the half-inhibitory concentration (IC50) in test [1] was 10 to 100 nM; in test [2] it was > 10000 nM.
On the same counts, the results for `COc1ccc(OC(=O)NC2CCCC2)cc1-c1cncc(-c2nnn[nH]2)c1` [Example 253, 3-(5-(1H-tetrazol-5-yl)pyridin-3-yl)-4-methoxyphenyl cyclopentylcarbamate] are > 1000 nM and > 10000 nM.
For `COc1ccc(OC(=O)NCC2CCCCC2)cc1-c1cncc(-c2nncs2)c1` [Example 214, 3-(5-(1,3,4-thiadiazol-2-yl)pyridin-3-yl)-4-methoxyphenyl (cyclohexylmethyl)carbamate] the same measures were 10 to 100 nM and > 10000 nM.
For `O=C(NCC1CCCCC1)Oc1cccc(-c2cncc(-c3nnco3)c2)c1` [Example 134, 3-(5-(1,3,4-oxadiazol-2-yl)pyridin-3-yl)phenyl (cyclohexylmethyl)carbamate] the same measures were 10 to 20 nM and > 10000 nM.
With `O=C(NCC1CCCCC1)Oc1cccc(-c2cncc(-c3ncco3)c2)c1` [Example 74, 3-(5-(oxazol-2-yl)pyridin-3-yl)phenyl (cyclohexylmethyl)carbamate], the IC50 was 10 to 100 nM in test [1] and > 1000 nM in test [2].
Consider `CCCCCCCNC(=O)Oc1cccc(-c2cncc(C=O)c2)c1` [Example 15, 3-(5-formylpyridin-3-yl)phenyl heptylcarbamate], for which the IC50 in test [1] fell in the range of 10 to 100 nM; in test [2], 10000 to 50000 nM.
In the case of `Cc1ccc(-c2cncc(-c3ncco3)c2)cc1OC(=O)NCc1ccccc1` [Example 94, 2-methyl-5-(5-(oxazol-2-yl)pyridin-3-yl)phenyl benzylcarbamate], the IC50 in test [1] and in test [2] was > 1000 nM each time.
On to `CCCCCCCCNC(=O)Oc1ccc(N(C)C)c(-c2cncc(-c3nnco3)c2)c1` [Example 180, 3-(5-(1,3,4-oxadiazol-2-yl)pyridin-3-yl)-4-(dimethylamino)phenyl octylcarbamate], for which the IC50 is 10 to 100 nM in test [1] and > 10000 nM in test [2].
`COc1ccc(OC(=O)NC2CCCC2)cc1-c1cncc(-c2ncn[nH]2)c1` [Example 235, 3-(5-(1H-1,2,4-triazol-5-yl)pyridin-3-yl)-4-methoxyphenyl cyclopentylcarbamate]: the IC50 in test [1] is 100 to 1000 nM; in test [2], > 10000 nM.

Source of the values: patent US20250129027A1 (APOGEE PHARMACEUTICALS, INC., priority 2023, published 2025).
